The record followed here is ChEMBL document CHEMBL3351412, “Design, synthesis and biological evaluation of β-boswellic acid based HDAC inhibitors as inducers of cancer cell death” (Bioorg Med Chem Lett, 2014).

The nature of experiment [1]: Cytotoxicity against human FR2 cells. The experiment is classed as cell-based.
The nature of experiment [2]: Cytotoxicity against human MIAPaCa2 cells. The experiment is classed as functional, cell-based. Particulars: MIA PaCa-2.
A further experiment has as its system A549. Nature of the experiment: Cytotoxicity against human A549 cells. The experiment is classed as functional, cell-based.
Experiment [3] is described as follows: Cytotoxicity against human HL60 cells. The experiment is classed as functional, cell-based. Particulars: HL-60.
The nature of experiment [4]: Cytotoxicity against human HCT116 cells. Conditions: HCT-116. The experiment is classed as functional, cell-based.
The test system of a further experiment is MCF7. The experiment is described as follows: Cytotoxicity against human MCF7 cells. It is filed as functional, cell-based.

Molecules are shown by their SMILES.

As a reminder, the IC50 is the midpoint of a concentration-inhibition curve. Higher therefore signals lower potency. In the case of `C[C@H]1[C@H](C)CC[C@]2(C)CC[C@]3(C)C(=CC[C@@H]4[C@@]5(C)CC[C@@H](O)[C@](C)(NC(=O)CCCCCCCC(=O)O)[C@@H]5CC[C@]43C)[C@H]12`, the half-inhibitory concentration (IC50) in experiment [1] was over 20 µM; in experiment [2], 15.9 µM; with A549, over 20 µM; in experiment [3] it was over 20 µM; in experiment [4] it was over 20 µM; with MCF7, 16.5 µM.

`COC(=O)CCCCCCC(=O)N[C@]1(C)[C@@H]2CC[C@]3(C)[C@H](CC=C4[C@@H]5[C@@H](C)[C@H](C)CC[C@]5(C)CC[C@]43C)[C@@]2(C)CC[C@H]1OC(C)=O`: the IC50 (in experiment [1]; in experiment [2]; in the experiment on A549; in experiment [3]; in experiment [4]; with MCF7) was over 20 µM in each case.

`COC(=O)CCCCCCC(=O)N[C@]1(C)[C@@H]2CC[C@]3(C)[C@H](C(=O)C=C4[C@@H]5[C@@H](C)[C@H](C)CC[C@]5(C)CC[C@]43C)[C@@]2(C)CC[C@H]1OC(C)=O`: the IC50 in experiment [1] is over 20 µM; in experiment [2] it was 8 µM; in the experiment with A549 it was 2 µM; in experiment [3], over 20 µM; in experiment [4], 15.7 µM; in the experiment with MCF7 it was under 0.25 µM.

Turning to `C[C@H]1[C@H](C)CC[C@]2(C)CC[C@]3(C)C(=CC[C@@H]4[C@@]5(C)CC[C@@H](O)[C@](C)(NC(=O)CCCCC(=O)NO)[C@@H]5CC[C@]43C)[C@H]12`, the IC50 was over 20 µM in experiment [1]; 11.8 µM in experiment [2]; over 20 µM in the experiment on A549; over 20 µM in experiment [3]; over 20 µM in experiment [4]; 4.4 µM in the experiment with MCF7.

For the compound `C[C@H]1[C@H](C)CC[C@]2(C)CC[C@]3(C)C(=CC(=O)[C@@H]4[C@@]5(C)CC[C@@H](O)[C@](C)(NC(=O)CCCCC(=O)O)[C@@H]5CC[C@]43C)[C@H]12`, the IC50 in experiment [1] is over 20 µM; in experiment [2] it was 14.1 µM; in the experiment with A549, 19.1 µM; in experiment [3] it was over 20 µM; in experiment [4] it was over 20 µM; with MCF7, 18 µM.

As to `C[C@H]1[C@H](C)CC[C@]2(C)CC[C@]3(C)C(=CC[C@@H]4[C@@]5(C)CC[C@@H](O)[C@](C)(NC(=O)CCCCCCC(=O)O)[C@@H]5CC[C@]43C)[C@H]12`, the IC50 (in experiment [1]; in experiment [2]; in the experiment on A549; in experiment [3]; in experiment [4]; in the experiment on MCF7) was over 20 µM in each case.

Consider `COC(=O)CCCC(=O)N[C@]1(C)[C@@H]2CC[C@]3(C)[C@H](C(=O)C=C4[C@@H]5[C@@H](C)[C@H](C)CC[C@]5(C)CC[C@]43C)[C@@]2(C)CC[C@H]1OC(C)=O`, for which the IC50 is over 20 µM in experiment [1]; over 20 µM in experiment [2]; 7.4 µM in the experiment with A549; 17.6 µM in experiment [3]; over 20 µM in experiment [4]; over 20 µM in the experiment on MCF7.

For the compound `COC(=O)CCCC(=O)N[C@@]1(C)[C@H](OC(C)=O)CC[C@]2(C)C3CC=C4[C@@H]5[C@@H](C)[C@H](C)CC[C@]5(C)CC[C@@]4(C)[C@]3(C)CC[C@@H]12` (single isomer, unassigned), the IC50 is over 20 µM in experiment [1]; 11.4 µM in experiment [2]; over 20 µM in the experiment with A549; 17.1 µM in experiment [3]; 19 µM in experiment [4]; 8.7 µM in the experiment with MCF7.

Consider `C[C@H]1[C@H](C)CC[C@]2(C)CC[C@]3(C)C(=CC(=O)[C@@H]4[C@@]5(C)CC[C@@H](O)[C@](C)(NC(=O)CCCC(=O)O)[C@@H]5CC[C@]43C)[C@H]12`, for which the IC50 was over 20 µM in experiment [1]; 6 µM in experiment [2]; 6.6 µM in the experiment with A549; over 20 µM in experiment [3]; 7.1 µM in experiment [4]; 11.1 µM with MCF7.

Regarding `COC(=O)CCCCC(=O)N[C@]1(C)[C@@H]2CC[C@]3(C)[C@H](C(=O)C=C4[C@@H]5[C@@H](C)[C@H](C)CC[C@]5(C)CC[C@]43C)[C@@]2(C)CC[C@H]1OC(C)=O`, the IC50 in experiment [1] is over 20 µM; in experiment [2], 15.1 µM; with A549, 15.1 µM; in experiment [3], over 20 µM; in experiment [4] it was 15.1 µM; in the experiment on MCF7, 15.1 µM.

In the case of `COC(=O)CCCCCCCC(=O)N[C@]1(C)[C@@H]2CC[C@]3(C)[C@H](CC=C4[C@@H]5[C@@H](C)[C@H](C)CC[C@]5(C)CC[C@]43C)[C@@]2(C)CC[C@H]1OC(C)=O`, the IC50 in experiment [1] is over 20 µM; in experiment [2], over 20 µM; in the experiment on A549, over 20 µM; in experiment [3] it was over 20 µM; in experiment [4], over 20 µM; in the experiment with MCF7 it was 17 µM.

Regarding `C[C@H]1[C@H](C)CC[C@]2(C)CC[C@]3(C)C(=CC(=O)[C@@H]4[C@@]5(C)CC[C@@H](O)[C@](C)(NC(=O)CCCCCCC(=O)O)[C@@H]5CC[C@]43C)[C@H]12`, the half-inhibitory concentration (IC50) in experiment [1] was over 20 µM; in experiment [2], 8.6 µM; in the experiment on A549 it was 2.9 µM; in experiment [3], over 20 µM; in experiment [4], over 20 µM; in the experiment with MCF7, over 20 µM.

`C[C@H]1[C@H](C)CC[C@]2(C)CC[C@]3(C)C(=CC[C@@H]4[C@@]5(C)CC[C@@H](O)[C@](C)(NC(=O)CCCC(=O)O)[C@@H]5CC[C@]43C)[C@H]12`: the IC50 is over 20 µM in experiment [1]; 11 µM in experiment [2]; over 20 µM in the experiment with A549; 13.4 µM in experiment [3]; over 20 µM in experiment [4]; 14.3 µM in the experiment on MCF7.

As for `C[C@H]1[C@H](C)CC[C@]2(C)CC[C@]3(C)C(=CC(=O)[C@@H]4[C@@]5(C)CC[C@@H](O)[C@](C)(NC(=O)CCCCCCCC(=O)O)[C@@H]5CC[C@]43C)[C@H]12`, the IC50 in experiment [1] is 16.6 µM; in experiment [2], over 20 µM; with A549 it was over 20 µM; in experiment [3], 7.5 µM; in experiment [4] it was over 20 µM; in the experiment on MCF7, 15.1 µM.

On to `COC(=O)CCCCC(=O)N[C@]1(C)[C@@H]2CC[C@]3(C)[C@H](CC=C4[C@@H]5[C@@H](C)[C@H](C)CC[C@]5(C)CC[C@]43C)[C@@]2(C)CC[C@H]1OC(C)=O`, for which the IC50 in experiment [1] is over 20 µM; in experiment [2], over 20 µM; with A549, over 20 µM; in experiment [3], over 20 µM; in experiment [4] it was over 20 µM; with MCF7 it was 13.8 µM.

As for `CC(=O)O[C@@H]1CC[C@]2(C)[C@H]3CC=C4[C@@H]5[C@@H](C)[C@H](C)CC[C@]5(C)CC[C@@]4(C)[C@]3(C)CC[C@H]2[C@@]1(C)N`, the IC50 was 13.9 µM in experiment [1]; 7.2 µM in experiment [2]; 13.2 µM in the experiment with A549; 10 µM in experiment [3]; 8.7 µM in experiment [4]; 6.9 µM in the experiment with MCF7.

`CC(=O)O[C@@H]1CC[C@]2(C)[C@H]3C(=O)C=C4[C@@H]5[C@@H](C)[C@H](C)CC[C@]5(C)CC[C@@]4(C)[C@]3(C)CC[C@H]2[C@@]1(C)N`: the IC50 turned out to be 7.1 µM in experiment [1]; 15.1 µM in experiment [2]; 6 µM in the experiment with A549; 6.1 µM in experiment [3]; 15.3 µM in experiment [4]; 14 µM with MCF7.
